Data from paper PMC13198257, “An aerosolized dual-action autotaxin inhibitor-PPARγ agonist for the treatment of pulmonary fibrosis” (Cell Reports Medicine, 2026).

Test system: lung gene expression
Test: RNA sequencing of lung tissue (BLM/EL244 vs BLM)
Type: in vivo, mouse
Conditions: lung tissue of BLM-treated mice, BLM/EL244 vs BLM
Experimental: RNA quality was assessed using an Agilent TapeStation 4150 with the High Sensitivity […] ScreenTape (Agilent), according to the manufacturer’s protocols. For library preparation, the QuantSeq 3’mRNA-Seq Library Prep Kit (Lexogen) was used according to manufacturer’s instructions. Briefly, 500 ng of RNA from each sample was used for first-strand synthesis, followed by RNA template removal, and second-strand synthesis initiated by random primers. In-line barcodes were introduced at this step, and this was followed by magnetic bead-based purification. The resulting libraries were amplified for 15 cycles and re-purified, with quantity and quality assessed on a Qubit 4 Fluorometer with the Invitrogen Qubit dsDNA HS Assay and an Agilent Tapestation 4150 with the High Sensitivity D1000 assay kit, respectively. The quantified libraries were pooled equimolarly; 50ng of total library mix was used for Adapter Conversion PCR Amplification using the Universal Library Conversion Kit (App-A), Version: V1.0 (MGI Tech Co., Ltd.), according to the manufacturer’s instructions.
The quantity and quality of the purified adapter conversion PCR (AC-PCR) product were evaluated on a Qubit 4 Fluorometer with the Invitrogen Qubit dsDNA HS Assay and on an Agilent Tapestation 4150 with the High Sensitivity D1000 assay kit, respectively. This was followed by DNA denaturation, Single-Strand Circularisation, Enzymatic Digestion, Enzymatic Digestion Product Cleanup and Quality Control steps on 1 pmol of AC-PCR product, according to the Universal Library Conversion Kit (App-A) User Manual (Version: A3).
Finally, 60 fmol of ssCirDNA were used for DNB preparation and sequencing on a DNBSEQ-G400 platform at the BSRC Alexander Fleming Genomics Facility, using a G400 App-A FCS SE100 High-throughput Sequencing Set (MGI Tech Co., Ltd.), according to the manufacturer’s instructions.
Alignment of the FASTQ files was performed against the mouse genome build mm10 using a custom Bash script.[143] Read counting on the 3′ UTRs and differential expression analysis were conducted using the metaseqR2 bioconductor package.[144] Genes corresponding to the following biotypes were excluded: polymorphic_pseudogene, processed_transcript, pseudogene, IG_V_pseudogene, misc_RNA, IG_C_gene, IG_J_gene, IG_D_gene, IG_LV_gene, TR_V_gene, TR_V_pseudogene, TEC, and processed_pseudogene. Gene counts were normalized with DESEQ[145] through metaseqR2. Genes with more than 10 counts in at least 50% of the samples were kept for further processing. For differential expression analysis, the PANDORA algorithm[146] was used to estimate a meta p-value integrating the results from the DESEQ, DESEQ2,[147] edgeR,[148] limma,[149] NBPSeq,[150] and NOISeq[151] algorithms. All additional parameters were set to default values.
Pathway enrichment analysis was performed for the Gene Ontology Biological process (BP) and Molecular Function (MF) terms through GeneCodis 4.[152] The volcano plots, scatterplots, Venn diagrams, and dot plots were generated using the ggplot2 Bioconductor package.

O=C1NC(=O)C(Cc2ccc(OCCC3CCN(C(=O)OCc4cc(Cl)cc(Cl)c4)CC3)cc2)S1 (stereo not shown) [EL244, 3,5-dichlorobenzyl 4-(2-(4-((2,4-dioxothiazolidin-5-yl)methyl)phenoxy)ethyl)piperidine-1-carboxylate]
Ces2g log2 nFC: 0.83
Ces2g nFC: 1.78
Cfap43 log2 nFC: 0.88
Cfap43 nFC: 1.84
Cfap100 log2 nFC: 0.89
Cfap100 nFC: 1.85
Cfap206 log2 nFC: 0.77
Cfap206 nFC: 1.70
Cftr log2 nFC: 0.96
Cftr nFC: 1.95
Cldn5 log2 nFC: 0.97
Cldn5 nFC: 1.96
Cpm log2 nFC: 0.68
Cpm nFC: 1.60
Crebl2 log2 nFC: 0.79
Crebl2 nFC: 1.73
Crem log2 nFC: 0.68
Crem nFC: 1.60
Crispld2 log2 nFC: 0.80
Crispld2 nFC: 1.74
Cry2 log2 nFC: 0.70
Cry2 nFC: 1.62
Csrnp1 log2 nFC: 0.83
Csrnp1 nFC: 1.78
Ctla2a log2 nFC: 0.72
Ctla2a nFC: 1.65
Ctla2b log2 nFC: 0.96
Ctla2b nFC: 1.94
Cyp2d22 log2 nFC: 0.97
Cyp2d22 nFC: 1.97
Cyp2f2 log2 nFC: 0.79
Cyp2f2 nFC: 1.72
Dgkh log2 nFC: 0.84
Dgkh nFC: 1.79
Dnali1 log2 nFC: 0.73
Dnali1 nFC: 1.66
Dok4 log2 nFC: 0.74
Dok4 nFC: 1.67
Dpep1 log2 nFC: 0.71
Dpep1 nFC: 1.63
Dusp1 log2 nFC: 0.86
Dusp1 nFC: 1.82
Ednrb log2 nFC: 0.97
Ednrb nFC: 1.96
Elmod1 log2 nFC: 0.89
Elmod1 nFC: 1.86
Eng log2 nFC: 0.81
Eng nFC: 1.76
Errfi1 log2 nFC: 0.95
Errfi1 nFC: 1.93
Fabp3 log2 nFC: 0.98
Fabp3 nFC: 1.97
Fmo1 log2 nFC: 0.86
Fmo1 nFC: 1.81
Fmo2 log2 nFC: 1.00
Fmo2 nFC: 2.00
Fos log2 nFC: 1.02
Fos nFC: 2.03
Fxyd1 log2 nFC: 0.80
Fxyd1 nFC: 1.75
Fzd4 log2 nFC: 0.69
Fzd4 nFC: 1.61
Galnt15 log2 nFC: 0.89
Galnt15 nFC: 1.85
Gm26236 log2 nFC: 1.03
Gm26236 nFC: 2.04
Gm47291 log2 nFC: 0.98
Gm47291 nFC: 1.98
Gm49391 log2 nFC: 0.96
Gm49391 nFC: 1.95
Gnao1 log2 nFC: 0.85
Gnao1 nFC: 1.80
Gpm6a log2 nFC: 0.83
Gpm6a nFC: 1.78
Gpr155 log2 nFC: 0.76
Gpr155 nFC: 1.69
Gprasp1 log2 nFC: 0.72
Gprasp1 nFC: 1.64
Gpt log2 nFC: 0.73
Gpt nFC: 1.66
Gsn log2 nFC: 1.06
Gsn nFC: 2.08
Gstm1 log2 nFC: 0.75
Gstm1 nFC: 1.68
Hecw2 log2 nFC: 0.81
Hecw2 nFC: 1.75
Hlf log2 nFC: 0.89
Hlf nFC: 1.86
Igf1r log2 nFC: 0.70
Igf1r nFC: 1.63
Il6ra log2 nFC: 0.84
Il6ra nFC: 1.79
Iqca log2 nFC: 0.87
Iqca nFC: 1.83
Itga8 log2 nFC: 0.88
Itga8 nFC: 1.85
Itih4 log2 nFC: 0.88
Itih4 nFC: 1.84
Iyd log2 nFC: 1.04
Iyd nFC: 2.05
Jdp2 log2 nFC: 0.71
Jdp2 nFC: 1.64
Klf3 log2 nFC: 0.69
Klf3 nFC: 1.62
Klf4 log2 nFC: 0.72
Klf4 nFC: 1.64
Klf9 log2 nFC: 0.85
Klf9 nFC: 1.80
Klrd1 log2 nFC: 0.95
Klrd1 nFC: 1.93
Kndc1 log2 nFC: 1.05
Kndc1 nFC: 2.07
Krt23 log2 nFC: 0.69
Krt23 nFC: 1.61
Lncpint log2 nFC: 1.06
